Measurements from publication PMC10901950, “Neuroprotective and Anti-inflammatory Effects of Rubiscolin-6 Analogs with Proline Surrogates in Position 2” (Neurochemical Research, 2023).
Numbered stars: 1 amine (or outer) side, 2 acyl side, 3 side chain; on linkers, the order of the positions; unused ones are H or OH. Square brackets hold non-standard residues; d marks the D form. Ends that are not written are not given here. Peptide text beside a SMILES is read from it. Nip(3R) = O=C([C@@H]1CCCN([*:1])C1)[*:2]; Dmt = Cc1cc(O)cc(C)c1C[C@H](N)C(=O)O; Inp = O=C(O)C1CCNCC1

Tests used:
[1] = Degradation by the brain homogenate; type: in vitro ADME; conditions: rat brain homogenate 100 µL (10 mg protein/mL, 50 mM Tris-HCl pH 7.4) + 100 µL peptide 0.5 mM, final 200 µL, 37 °C, 0-60 min, HPLC read-out, ln 2/k; mean ± SEM of four independent experiments in duplicate; read-out: T0.5 (degradation half-life)
Protocol: The degradation studies were performed on the rat brain homogenate according to the modified method described elsewhere. Briefly, rat brains, after isolation and homogenization in 50 mM Tris–HCl (pH 7.4), were stored at − 80 °C until used. During the test, the aliquots (100 µL, 10 mg protein/mL) were incubated with 100 µL of a peptide (0.5 mM) over 0, 7.5, 15, 22.5, 30, and 60 min at 37 °C in a final volume of 200 µL. The reaction was stopped at the required time by placing the tube on ice and acidifying it with 20 µL of 1 M aqueous HCl solution. Then, the aliquots were centrifuged at 20,000×g for 10 min at 4 °C. The obtained supernatants were filtered and analyzed by HPLC on a Vydac C18 column (5 µm, […]) using the solvent system of 0.1% trifluoroacetic acid (TFA) in water (A) and 80% acetonitrile in water containing 0.1% TFA (B) and a linear gradient of 0–100% B over 25 min. The rate constants of degradation (k) were obtained as described earlier by a least square linear regression analysis of logarithmic peak areas [ln(A/AD)], where A—the amount of peptide remaining, AD—the initial amount of peptide, versus time. Degradation half-lives (t1/2) were calculated from the rate constants as ln 2/k.

µ-opioid receptor [2] = molecular target: T1, µ-opioid receptor (Homo sapiens, UniProt P35372); test: Opioid receptor binding assay, [3H]DAMGO competition; parameters: purchased; host or cells: CHO cells (membranes); conditions: CHO cell membranes, 0.5 nM [3H]DAMGO, 25 °C, 120 min; mean ± SEM of four experiments in duplicate; read-out: Ki MOR
T1 sequence (P35372 whole entry): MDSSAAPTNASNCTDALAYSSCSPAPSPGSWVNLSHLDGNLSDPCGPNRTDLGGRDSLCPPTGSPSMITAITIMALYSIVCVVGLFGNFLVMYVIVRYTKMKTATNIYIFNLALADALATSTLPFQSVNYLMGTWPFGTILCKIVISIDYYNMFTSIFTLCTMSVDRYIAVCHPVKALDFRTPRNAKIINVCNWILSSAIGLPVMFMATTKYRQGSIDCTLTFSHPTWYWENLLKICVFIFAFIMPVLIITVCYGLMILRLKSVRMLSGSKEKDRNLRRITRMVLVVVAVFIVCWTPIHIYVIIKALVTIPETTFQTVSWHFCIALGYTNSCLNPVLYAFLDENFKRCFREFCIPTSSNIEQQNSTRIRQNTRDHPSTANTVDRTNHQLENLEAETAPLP
Protocol: (§1) The opioid receptor binding assays were performed using the modified method described elsewhere. Briefly, commercial membranes of Chinese Hamster Ovary (CHO) cells transfected with human opioid receptors were used. The binding affinities for µ-, δ- and κ-opioid receptors were determined by radioligand competition analysis using [^3H]DAMGO, [^3H]deltorphin-2, and [^3H]U-69593, respectively. Membranes were incubated at 25 °C for 120 min with appropriate concentrations of a tested peptide in the presence of 0.5 nM radioligand in a total volume of 0.5 mL of 50 mM Tris/HCl (pH 7.4) containing bovine serum albumin (BSA) (1 mg/mL), bacitracin (50 µg/mL), bestatin (30 µM), and captopril (10 µM). Non-specific binding was determined in the presence of 1 µM naloxone. Incubations were terminated by the rapid filtration through the GF/B Whatman (Brentford, UK) glass fibre strips (pre-soaked for 2 h in 0.5% (v/v) […]) using Millipore Sampling Manifold (Billerica, MA, USA). The filters were washed thrice with 4 mL of ice-cold Tris buffer solution. Packard Tri-Carb 2100 TR liquid scintillation counter (Ramsey, MN, USA) was used to measure the bound radioactivity after overnight extraction of the filters in 4 mL of a Perkin Elmer Ultima Gold scintillation fluid (Wellesley, MA, USA). The data were analyzed by a nonlinear least square regression analysis computer program Graph Pad PRISM 6.0 (Graph Pad Software Inc., San Diego, CA, USA). The values of the inhibitory constants (Ki) were calculated according to the equation of Cheng and Prusoff.
(§2) The ability of R-6 and its new analogs to bind to µ-, δ- and κ-opioid receptors was determined by competitive binding assays against [^3H]DAMGO, [^3H][Ile^5,6]deltorphin-2 and [^3H]U-69593, respectively, using membranes of CHO cells transfected with opioid receptors and are summarized in Table 2.

δ-opioid receptor [3] = molecular target: T2, δ-opioid receptor (Homo sapiens, UniProt P41143); test: Opioid receptor binding assay, [3H][Ile5,6]deltorphin-2 competition; parameters: purchased; host or cells: CHO cells (membranes); conditions: CHO cell membranes, 0.5 nM [3H][Ile5,6]deltorphin-2, 25 °C, 120 min; mean ± SEM of four experiments in duplicate; read-out: Ki DOR
T2 sequence (P41143 whole entry): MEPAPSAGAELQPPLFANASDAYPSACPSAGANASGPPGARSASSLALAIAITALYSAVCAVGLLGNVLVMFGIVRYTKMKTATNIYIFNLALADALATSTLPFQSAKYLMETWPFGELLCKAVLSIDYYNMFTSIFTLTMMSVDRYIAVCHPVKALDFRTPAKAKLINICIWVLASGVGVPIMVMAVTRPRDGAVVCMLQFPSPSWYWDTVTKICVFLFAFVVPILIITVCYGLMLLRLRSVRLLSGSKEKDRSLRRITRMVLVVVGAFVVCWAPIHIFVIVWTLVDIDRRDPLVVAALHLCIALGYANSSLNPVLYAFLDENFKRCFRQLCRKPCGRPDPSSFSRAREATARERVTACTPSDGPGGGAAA
Protocol: as §1, §2

µ-opioid receptor [4] = molecular target: T1, µ-opioid receptor; test: Calcium mobilisation assay, CHO cells with Gαqi5; type: cell-based; parameters: expressed in transfected cells; gift from Prof; Girolamo Calo, University of Padova; conditions: for µ-opioid receptors α ± SEM: intrinsic activity, Emax ratio to Dermorphin; for µ-opioid receptors α ± SEM / µ-opioid receptors pEC50 (CL95%): Inactive = inactive as an agonist up to 1 µM; for EC50: read-out: µ-opioid receptors pEC50 (CL95%) (converted); for µ-opioid receptors pEC50 (CL95%): agonist potency, mean ± SEM of three experiments in triplicate
Protocol: (§3) Chinese Hamster Ovary (CHO) cells stably co-expressing human recombinant µ- or κ-opioid receptors and the C-terminally modified Gαqi5, and CHO cells co-expressing the human recombinant δ-opioid receptors and the GαqG66Di5 chimeric protein (a generous gift from Prof. Girolamo Calo, University of Padova, Italy) were used in calcium mobilization assay, that was performed as reported in detail elsewhere. Cells were cultured in Dulbecco’s Modified Eagle’s Medium (DMEM)/Ham’s F12 (1:1) culture medium supplemented with 10% (v/v) Fetal Bovine Serum (FBS), penicillin (100 IU/mL), streptomycin (100 µg/mL), L-glutamine (2 mM), fungizone (1 µg/mL), geneticin (G418; 200 µg/mL) and hygromycin B (100 µg/mL). Cell cultures were kept at 37 °C in 5% CO2/humidified air. When confluence was reached (3–4 days), cells were seeded at a density of 50,000 cells/well into 96-well black, clear-bottom plates. After 24 h incubation, the cells were loaded with a medium supplemented with probenecid (2.5 mM), calcium-sensitive fluorescent dye Fluo-4 AM (3 µM), pluronic acid (0.01%), and HEPES (20 mM) and kept for 30 min at 37 °C. Then, the loading solution was aspirated, and 100 µL/well of assay buffer (HBSS supplemented with 20 mM HEPES, 2.5 mM probenecid, and 500 µM Brilliant Black) was added.
(§4) The tested peptides were diluted in the HBSS/HEPES (20 mM) buffer (containing 0.005% BSA) and placed into 96-well plates. The range of concentrations tested was 10 µM–1 × 10^–6 µM. After placing both plates (cell culture and compound plate) into the FlexStation II (Molecular Device, Union City, CA, USA), the online additions were carried out in a volume of 50 µL/well and the fluorescence changes were measured.
(§5) Concentration–response curves were fitted with the four-parameter logistic, nonlinear regression model: Effect=baseline+Emax- baseline/1+10^logEC50- Xn where X is the agonist concentration and n is the Hill coefficient. Ligand efficacies, expressed as the intrinsic activity (α), were calculated as the Emax ratio of the tested compound and the standard agonist.

δ-opioid receptor [5] = molecular target: T2, δ-opioid receptor; test: Calcium mobilisation assay, CHO cells with GαqG66Di5; type: cell-based; parameters: expressed in transfected cells; host or cells: CHO cells; gift from Prof; Girolamo Calo, University of Padova; conditions: for δ-opioid receptors pEC50 (CL95%): agonist potency, mean ± SEM of three experiments in triplicate; for δ-opioid receptors pEC50 (CL95%) / δ-opioid receptors α ± SEM: Inactive = inactive as an agonist up to 1 µM; for δ-opioid receptors α ± SEM: intrinsic activity, Emax ratio to DPDPE; for EC50: read-out: δ-opioid receptors pEC50 (CL95%) (converted)
Protocol: as §3, §4, §5

| Compound | half-life at 0.25 mM [1] [min] | Ki (µ-opioid receptor [2]) [nM] | Ki (δ-opioid receptor [3]) [nM] | µ-opioid receptors α ± SEM (µ-opioid receptor [4]) | EC50 (µ-opioid receptor [4]) [nM] | δ-opioid receptors pEC50 (CL95%) (δ-opioid receptor [5]) | δ-opioid receptors α ± SEM (δ-opioid receptor [5]) | µ-opioid receptors pEC50 (CL95%) (µ-opioid receptor [4]) | EC50 (δ-opioid receptor [5]) [nM] |
| --- | --- | --- | --- | --- | --- | --- | --- | --- | --- |
| Cc1cc(O)cc(C)c1C[C@H](N)C(=O)N1CCC[C@H]1C(=O)N[C@@H](CC(C)C)C(=O)N[C@@H](CC(=O)O)C(=O)N[C@@H](CC(C)C)C(=O)N[C@@H](Cc1ccccc1)C(=O)O [analog 1, Dmt-Pro-Leu-Asp-Leu-Phe-OH] (H-[Dmt]PLDLF-OH) | 20.8 ± 0.85 | 599 ± 84.5 | 91.7 ± 29.7 | 0.22 ± 0.05 | 2000 | Inactive | Inactive | – | – |
| CC(C)C[C@H](NC(=O)[C@@H]1CCCN(C(=O)[C@@H](N)Cc2ccc(O)cc2)C1)C(=O)N[C@@H](CC(=O)O)C(=O)N[C@@H](CC(C)C)C(=O)N[C@@H](Cc1ccccc1)C(=O)O [analog 2, Tyr-(R)-Nip-Leu-Asp-Leu-Phe-OH] (H-Y[Nip(3R)]LDLF-OH) | 25.5 ± 0.4 | > 1000 | > 1000 | Inactive | – | Inactive | Inactive | Inactive | – |
| CC(C)C[C@H](NC(=O)C1CCN(C(=O)[C@@H](N)Cc2ccc(O)cc2)CC1)C(=O)N[C@@H](CC(=O)O)C(=O)N[C@@H](CC(C)C)C(=O)N[C@@H](Cc1ccccc1)C(=O)O [analog 3, Tyr-Inp-Leu-Asp-Leu-Phe-OH] (H-Y[Inp]LDLF-OH) | 28.6 ± 0.95 | > 1000 | 734 ± 31.3 | Inactive | – | Inactive | Inactive | Inactive | – |
| Cc1cc(O)cc(C)c1C[C@H](N)C(=O)N1CCC[C@@H](C(=O)N[C@@H](CC(C)C)C(=O)N[C@@H](CC(=O)O)C(=O)N[C@@H](CC(C)C)C(=O)N[C@@H](Cc2ccccc2)C(=O)O)C1 [analog 4, Dmt-(R)-Nip-Leu-Asp-Leu-Phe-OH] (H-[Dmt][Nip(3R)]LDLF-OH) | 30.4 ± 1.2 | > 1000 | > 1000 | Inactive | – | Inactive | Inactive | Inactive | – |
| Cc1cc(O)cc(C)c1C[C@H](N)C(=O)N1CCC(C(=O)N[C@@H](CC(C)C)C(=O)N[C@@H](CC(=O)O)C(=O)N[C@@H](CC(C)C)C(=O)N[C@@H](Cc2ccccc2)C(=O)O)CC1 [analog 5, Dmt-Inp-Leu-Asp-Leu-Phe-OH] (H-[Dmt][Inp]LDLF-OH) | 38.5 ± 0.7 | 712 ± 101 | 13.1 ± 3.08 | 0.11 ± 0.04 | 7590 | – | 0.39 ± 0.02 | – | 22400 |
| CC(C)C[C@H](NC(=O)C1CCN(C(=O)[C@@H](N)Cc2ccc(O)cc2)CC1)C(=O)N[C@@H](CC(=O)O)C(=O)N[C@@H](CC(C)C)C(=O)N[C@@H](Cc1ccccc1)C(N)=O [analog 7, Tyr-Inp-Leu-Asp-Leu-Phe-NH2] (H-Y[Inp]LDLF-NH2) | 30.7 ± 0.35 | > 1000 | 773 ± 137 | Inactive | – | Inactive | Inactive | Inactive | – |
| YPLDLF [R-6, rubiscolin-6] | 14.3 ± 0.8 | > 1000 | 11.5 ± 2.25 | Inactive | – | – | – | Inactive | 5620 |
| YPLDLF-NH2 [analog 6, Tyr-Pro-Leu-Asp-Leu-Phe-NH2] | 23.2 ± 1.05 | > 1000 | > 1000 | Inactive | – | Inactive | Inactive | Inactive | – |
